Test results reported in the NIST ThermoML archive (doi:10.1016/j.fluid.2004.09.013).
± gives the expanded uncertainty stated by the source.

Conditions: for mass density: Fluid (supercritical or subcritical phases), Vibrating tube method; for vapor or sublimation pressure: Liquid

C=C(C)C [2-methylpropene]
Conditions	mass density [kg/m3]
273.23 K, 615 kPa	619.2 ± 1.2
273.23 K, 9987 kPa	631.07 ± 1.3
273.23 K, 15001 kPa	636.64 ± 1.3
273.23 K, 20001 kPa	641.78 ± 1.4
273.23 K, 25007 kPa	646.58 ± 1.4
273.23 K, 29992 kPa	651.06 ± 1.4
273.23 K, 34986 kPa	655.29 ± 1.4
273.23 K, 40007 kPa	659.29 ± 1.5
273.24 K, 5018 kPa	625.04 ± 1.3
278.24 K, 625 kPa	613.32 ± 1.2
278.24 K, 9983 kPa	625.79 ± 1.3
278.24 K, 29985 kPa	646.57 ± 1.4
278.25 K, 4992 kPa	619.43 ± 1.3
278.25 K, 14997 kPa	631.6 ± 1.3
278.25 K, 19994 kPa	636.96 ± 1.3
278.25 K, 24995 kPa	641.93 ± 1.4
278.25 K, 35001 kPa	650.96 ± 1.4
278.25 K, 39983 kPa	655.07 ± 1.5
283.26 K, 623 kPa	607.34 ± 1.2
283.26 K, 4980 kPa	613.78 ± 1.2
283.26 K, 10001 kPa	620.49 ± 1.3
283.26 K, 15002 kPa	626.55 ± 1.3
283.26 K, 19992 kPa	632.11 ± 1.3
283.26 K, 24993 kPa	637.28 ± 1.4
283.26 K, 29994 kPa	642.09 ± 1.4
283.26 K, 34999 kPa	646.62 ± 1.4
283.26 K, 39994 kPa	650.87 ± 1.4
288.27 K, 622 kPa	601.26 ± 1.2
288.27 K, 4986 kPa	608.09 ± 1.2
288.27 K, 9999 kPa	615.12 ± 1.3
288.27 K, 15002 kPa	621.46 ± 1.3
288.27 K, 20000 kPa	627.26 ± 1.3
288.27 K, 24990 kPa	632.61 ± 1.4
288.27 K, 30003 kPa	637.6 ± 1.4
288.27 K, 35005 kPa	642.28 ± 1.4
288.27 K, 40002 kPa	646.66 ± 1.4
293.28 K, 624 kPa	595.08 ± 1.2
293.28 K, 4999 kPa	602.33 ± 1.2
293.28 K, 9991 kPa	609.69 ± 1.3
293.28 K, 14989 kPa	616.34 ± 1.3
293.28 K, 19994 kPa	622.38 ± 1.3
293.28 K, 24993 kPa	627.94 ± 1.4
293.28 K, 30001 kPa	633.11 ± 1.4
293.28 K, 35003 kPa	637.94 ± 1.4
293.28 K, 39987 kPa	642.44 ± 1.4
298.3 K, 624 kPa	588.78 ± 1.2
298.3 K, 4988 kPa	596.46 ± 1.2
298.3 K, 9992 kPa	604.23 ± 1.2
298.3 K, 14991 kPa	611.17 ± 1.3
298.3 K, 20004 kPa	617.49 ± 1.3
298.3 K, 25009 kPa	623.26 ± 1.3
298.3 K, 30005 kPa	628.61 ± 1.4
298.3 K, 34998 kPa	633.59 ± 1.4
298.3 K, 40003 kPa	638.26 ± 1.4
303.3 K, 638 kPa	582.38 ± 1.2
303.3 K, 14996 kPa	606.02 ± 1.3
303.3 K, 19992 kPa	612.59 ± 1.3
303.3 K, 24991 kPa	618.59 ± 1.3
303.3 K, 34996 kPa	629.29 ± 1.4
303.3 K, 39999 kPa	634.1 ± 1.4
303.31 K, 4990 kPa	590.52 ± 1.2
303.31 K, 9994 kPa	598.73 ± 1.2
303.31 K, 29988 kPa	624.13 ± 1.4
308.31 K, 706 kPa	575.94 ± 1.2
308.32 K, 4988 kPa	584.48 ± 1.2
308.32 K, 9989 kPa	593.14 ± 1.2
308.32 K, 14992 kPa	600.77 ± 1.3
308.32 K, 19998 kPa	607.63 ± 1.3
308.32 K, 24997 kPa	613.87 ± 1.3
308.32 K, 30005 kPa	619.62 ± 1.4
308.32 K, 34988 kPa	624.91 ± 1.4
308.32 K, 40003 kPa	629.89 ± 1.4
313.2 K, 951 kPa	569.89 ± 1.2
313.2 K, 4993 kPa	578.43 ± 1.2
313.2 K, 9992 kPa	587.58 ± 1.2
313.2 K, 14986 kPa	595.55 ± 1.2
313.2 K, 19994 kPa	602.7 ± 1.3
313.2 K, 24994 kPa	609.17 ± 1.3
313.2 K, 29987 kPa	615.08 ± 1.4
313.2 K, 34991 kPa	620.58 ± 1.4
313.2 K, 40013 kPa	625.7 ± 1.4
318.21 K, 1034 kPa	563.28 ± 1.1
318.21 K, 4991 kPa	572.22 ± 1.2
318.21 K, 9993 kPa	581.88 ± 1.2
318.21 K, 15000 kPa	590.28 ± 1.2
318.21 K, 20002 kPa	597.73 ± 1.3
318.21 K, 24998 kPa	604.47 ± 1.3
318.21 K, 29993 kPa	610.61 ± 1.4
318.21 K, 34995 kPa	616.28 ± 1.4
318.21 K, 39991 kPa	621.54 ± 1.4
323.22 K, 1130 kPa	556.5 ± 1.1
323.22 K, 5015 kPa	565.89 ± 1.2
323.22 K, 10019 kPa	576.14 ± 1.2
323.22 K, 15017 kPa	584.94 ± 1.2
323.22 K, 20010 kPa	592.7 ± 1.3
323.22 K, 25016 kPa	599.69 ± 1.3
323.22 K, 30006 kPa	606.04 ± 1.4
323.22 K, 34990 kPa	611.88 ± 1.4
328.22 K, 1213 kPa	549.51 ± 1.1
328.22 K, 4997 kPa	559.34 ± 1.1
328.22 K, 10001 kPa	570.24 ± 1.2
328.22 K, 14997 kPa	579.49 ± 1.2
328.22 K, 19998 kPa	587.62 ± 1.3
328.22 K, 24989 kPa	594.87 ± 1.3
328.22 K, 29993 kPa	601.47 ± 1.3
328.22 K, 35002 kPa	607.53 ± 1.4
333.22 K, 1303 kPa	542.34 ± 1.1
333.22 K, 4983 kPa	552.65 ± 1.1
333.22 K, 9997 kPa	564.28 ± 1.2
333.22 K, 15001 kPa	574.03 ± 1.2
333.22 K, 19998 kPa	582.51 ± 1.3
333.22 K, 25001 kPa	590.09 ± 1.3
333.22 K, 30012 kPa	596.94 ± 1.3
333.22 K, 34994 kPa	603.17 ± 1.4
338.22 K, 1401 kPa	534.97 ± 1.1
338.22 K, 4983 kPa	545.83 ± 1.1
338.22 K, 9985 kPa	558.2 ± 1.2
338.22 K, 14988 kPa	568.49 ± 1.2
338.22 K, 20002 kPa	577.4 ± 1.2
338.22 K, 24995 kPa	585.25 ± 1.3
338.22 K, 30004 kPa	592.35 ± 1.3
338.22 K, 34989 kPa	598.79 ± 1.4
338.23 K, 39972 kPa	604.69 ± 1.4
343.22 K, 1507 kPa	527.38 ± 1.1
343.22 K, 4990 kPa	538.84 ± 1.1
343.22 K, 14984 kPa	562.89 ± 1.2
343.22 K, 19992 kPa	572.21 ± 1.2
343.22 K, 24986 kPa	580.39 ± 1.3
343.23 K, 10002 kPa	552.06 ± 1.2
343.23 K, 29994 kPa	587.74 ± 1.3
343.23 K, 35010 kPa	594.44 ± 1.4
348.23 K, 1624 kPa	519.55 ± 1.1
348.23 K, 4982 kPa	531.6 ± 1.1
348.23 K, 9996 kPa	545.8 ± 1.1
348.23 K, 15003 kPa	557.28 ± 1.2
348.23 K, 19988 kPa	566.99 ± 1.2
348.23 K, 24994 kPa	575.52 ± 1.3
348.23 K, 29995 kPa	583.14 ± 1.3
348.23 K, 34998 kPa	590.02 ± 1.4
353.23 K, 1750 kPa	511.45 ± 1.1
353.23 K, 4999 kPa	524.22 ± 1.1
353.23 K, 9995 kPa	539.41 ± 1.1
353.23 K, 15002 kPa	551.55 ± 1.2
353.23 K, 19988 kPa	561.74 ± 1.2
353.23 K, 24993 kPa	570.61 ± 1.3
353.23 K, 29992 kPa	578.51 ± 1.3
353.23 K, 35002 kPa	585.65 ± 1.4
358.23 K, 1880 kPa	503.02 ± 1
358.23 K, 4995 kPa	516.51 ± 1.1
358.23 K, 9992 kPa	532.9 ± 1.1
358.23 K, 14994 kPa	545.74 ± 1.2
358.23 K, 19987 kPa	556.44 ± 1.2
358.23 K, 25000 kPa	565.71 ± 1.3
358.23 K, 29992 kPa	573.87 ± 1.3
358.23 K, 34986 kPa	581.23 ± 1.4
363.23 K, 2029 kPa	494.29 ± 1
363.23 K, 4995 kPa	508.53 ± 1.1
363.23 K, 9990 kPa	526.24 ± 1.1
363.23 K, 14992 kPa	539.87 ± 1.2
363.23 K, 19984 kPa	551.08 ± 1.2
363.23 K, 25007 kPa	560.75 ± 1.3
363.23 K, 29987 kPa	569.21 ± 1.3
363.23 K, 34996 kPa	576.84 ± 1.4
368.23 K, 2186 kPa	485.16 ± 1
368.23 K, 4992 kPa	500.2 ± 1.1
368.23 K, 9984 kPa	519.43 ± 1.1
368.23 K, 14990 kPa	533.92 ± 1.2
368.23 K, 29990 kPa	564.54 ± 1.3
368.24 K, 19992 kPa	545.7 ± 1.2
368.24 K, 25001 kPa	555.77 ± 1.2
368.24 K, 35000 kPa	572.42 ± 1.4
373.23 K, 2351 kPa	475.57 ± 0.99
373.23 K, 29996 kPa	559.86 ± 1.3
373.23 K, 34996 kPa	567.99 ± 1.3
373.24 K, 4995 kPa	491.52 ± 1
373.24 K, 9984 kPa	512.47 ± 1.1
373.24 K, 14991 kPa	527.88 ± 1.1
373.24 K, 19998 kPa	540.27 ± 1.2
373.24 K, 25004 kPa	550.75 ± 1.2
373.24 K, 39995 kPa	575.36 ± 1.4
378.24 K, 2531 kPa	465.5 ± 0.98
378.24 K, 4999 kPa	482.41 ± 1
378.24 K, 9996 kPa	505.39 ± 1.1
378.24 K, 14983 kPa	521.73 ± 1.1
378.24 K, 19996 kPa	534.78 ± 1.2
378.24 K, 25004 kPa	545.72 ± 1.2
378.24 K, 29995 kPa	555.17 ± 1.3
378.24 K, 34988 kPa	563.54 ± 1.3
383.24 K, 2689 kPa	454.37 ± 0.95
383.24 K, 4984 kPa	472.67 ± 1
383.24 K, 9995 kPa	498.07 ± 1.1
383.24 K, 14986 kPa	515.53 ± 1.1
383.24 K, 20004 kPa	529.26 ± 1.2
383.24 K, 25006 kPa	540.65 ± 1.2
383.24 K, 29986 kPa	550.43 ± 1.3
383.24 K, 34992 kPa	559.1 ± 1.3
388.24 K, 2901 kPa	443.01 ± 0.94
388.24 K, 4994 kPa	462.48 ± 0.98
388.24 K, 9997 kPa	490.56 ± 1.1

Conditions	vapor or sublimation pressure [kPa]
285.97 K	206.58 ± 0.91
297.46 K	297.04 ± 1.2
307.88 K	404.2 ± 1.6
315.82 K	503.41 ± 2
324.78 K	633 ± 2.5
328.93 K	704.67 ± 2.8
337.82 K	871.92 ± 3.4
348.26 K	1100.8 ± 4.2
357.33 K	1343.9 ± 5.1
364.25 K	1545.1 ± 5.8
371.52 K	1784.7 ± 6.7
380.19 K	2094.5 ± 7.7
386.12 K	2332.7 ± 8.6
